# Test: Hydrolysis rate / drug release rate of the compounds (release of JAK inhibitor, HPLC)
# Type: physicochemical
# Settings: % release of JAK inhibitor from sample in acetonitrile/water=7/3 (v/v), 37° C. constant temperature shaker, sampled days 1-4, HPLC
# Experimental: Analysis Method for Hydrolysis Rate of Compounds of the Present Invention
# 1. Preparation of Standard Working Curve Solution
# (§1) About 10 mg of JAK inhibitors (tofacitinib and baricitinib) reference substances were weighed into a 25 mL volumetric flask, acetonitrile/water=7/3 (v/v) was added to dissolve and dilute to the marked volume, serving as a stock solution. The stock solution was diluted with a suitable dilution factor to obtain linear solutions of each concentration: 0.0002 mg/mL, 0.0004 mg/mL, 0.004 mg/mL, 0.04 mg/mL, and 0.08 mg/mL.
# as §1, with “(Oclacitinib, Ruxolitinib, Delgocitinib,” for “(tofacitinib”, “Upadacitinib)” for “baricitinib)”
# 2. Preparation of Sample Solution
# About 5 mg of the sample (the compound prepared in the present invention) was weighed into a 20 mL volumetric flask, acetonitrile/water=7/3 (v/v) was added to dissolve and dilute to the marked volume, serving as a stock solution. An appropriate amount of HPLC was loaded as the 0-day sample. The test solution was sealed with a sealing film and placed in a 37° C. constant temperature shaker. The test samples were taken at the same time on days 1, 2, 3, and 4 respectively. the release amount of JAK inhibitor in the sample was calculated according to the sample weight and JAK inhibitor standard curve.
# 3. Calculation Formula % Release of JAK Inhibitor r=100%×((AJAK Inhibitor−b)/a)/((W/20×M2/M1) wherein • AJAK inhibitor is the peak area of JAK inhibitor in the sample chromatogram • b is the intercept of the standard curve M1 is the molecular weight of the sample a is the slope of the standard curve
# W is the sample weight (mg) M2 is the molecular weight of the JAK inhibitor
# 4. Chromatographic Conditions
row,SMILES,Release Rate (%/day)
1,"CCC(C(=O)n1ccc2c(-c3cnn([C@H](CC#N)C4CCCC4)c3)ncnc21)c1ccc(N2Cc3ccccc3C2=O)cc1 (stereo partly drawn) [Ex. 34, (3R)-3-cyclopentyl-3-(4-(7-(2-(4-(1-oxoisoindolin-2-yl)phenyl)butanoyl)-7H-pyrrolo [2,3-d]pyrimidin-4-yl)-1H-pyrazol-1-yl) propanenitrile]",1.57 %/day
2,"COc1ccc2c(c1)c(CC(=O)n1ccc3c(-c4cnn([C@H](CC#N)C5CCCC5)c4)ncnc31)c(C)n2C(=O)c1ccc(Cl)cc1 [Ex. 79, (R)-3-(4-(7-(2-(1-(4-chlorobenzoyl)-5-methoxy-2-methyl-1H-indol-3-yl)acetyl)-7H-pyrrolo [2,3-d]pyrimidin-4-yl)-1H-pyrazol-1-yl)-3-cyclopentylpropanenitrile]",7.38 %/day
3,"N#CC[C@H](C1CCCC1)n1cc(-c2ncnc3c2ccn3C(=O)Cc2ccccc2Nc2c(Cl)cccc2Cl)cn1 [Ex. 75, (R)-3-cyclopentyl-3-(4-(7-(2-(2-((2,6-dichlorophenyl)amino)phenyl)acetyl)-7H-pyrrolo [2,3-d]pyrimidin-4-yl)-1H-pyrazol-1-yl) propanenitrile]",10.38 %/day
4,"CCc1cccc2c3c([nH]c12)C(CC)(CC(=O)n1ccc2c(N(C)C4CCC(CS(=O)(=O)NC)CC4)ncnc21)OCC3 (stereo not drawn) [Ex. 37, 1-((Trans)-4-((7-(2-(1,8-diethyl-1,3,4,9-tetrahydropyrano [3,4-b]indol-1-yl)acetyl)-7H-pyrrolo [2,3-d]pyrimidin-4-yl) (methyl)amino)cyclohexyl)-N-methyl methanesulfonamide]",1.05 %/day
5,"CC(C(=O)n1ccc2c(-c3cnn([C@H](CC#N)C4CCCC4)c3)ncnc21)c1cccc(C(=O)c2ccccc2)c1 (stereo partly drawn) [Ex. 32, (3R)-3-(4-(7-(2-(3-benzoylphenyl)propanoyl)-7H-pyrrolo [2,3-d]pyrimidin-4-yl)-1H-pyrazol-1-yl)-3-cyclopentylpropanenitrile]",7.12 %/day
6,CCS(=O)(=O)N1CC(CC#N)(n2cc(-c3ncnc4c3ccn4C(=O)C(C)c3ccc(CC4CCCC4=O)cc3)cn2)C1 (centres unmarked) [Ex. 22],2.75 %/day
7,"CC(=O)Nc1ccc(CC(=O)OCn2ccc3c(N(C)[C@H]4CN(C(=O)CC#N)CC[C@H]4C)ncnc32)cc1 [Ex. 59, (4-(((3R, 4R)-1-(2-cyanoacetyl)-4-methylpiperidin-3-yl) (methyl)amino)-7H-pyrrolo [2,3-d]pyrimidin-7-yl) methyl 2-(4-acetamidophenyl) acetate]",0.15 %/day
8,"CC(C(=O)n1ccc2c(N(C)[C@H]3CN(C(=O)CC#N)CC[C@H]3C)ncnc21)c1cccc(Oc2ccccc2)c1 (stereo partly drawn) [Ex. 10, 3-((3R,4R)-4-methyl-3-(methyl (7-(2-(3-phenoxyphenyl)propanoyl)-7H-pyrrolo [2,3-d]pyrimidin-4-yl)amino)piperidin-1-yl)-3-oxopropanenitrile]",11.25 %/day
9,"CC(C(=O)OCn1ccc2c(N(C)[C@H]3CN(C(=O)CC#N)CC[C@H]3C)ncnc21)c1ccc(-c2ccccc2)c(F)c1 (stereo partly drawn) [Ex. 50, (4-(((3R, 4R)-1-(2-cyanoacetyl)-4-methylpiperidin-3-yl) (methyl)amino)-7H-pyrrolo [2,3-d]pyrimidin-7-yl) methyl 2-(2-fluoro-[1, 1′-biphenyl]-4-yl) propanoate]",0.05 %/day
10,"CC(C(=O)n1ccc2c(N(C)[C@H]3CN(C(=O)CC#N)CC[C@H]3C)ncnc21)c1ccc(-c2ccccc2)c(F)c1 (stereo partly drawn) [Ex. 8, 3-((3R, 4R)-3-((7-(2-(2-fluoro-[1, 1′-biphenyl]-4-yl)propanoyl)-7H-pyrrolo[2,3-d]pyrimidin-4-yl)(methyl)amino)-4-methylpiperidin-1-yl)-3-oxopropanenitrile]",14.77 %/day
11,C[C@@H]1CCN(C(=O)CC#N)C[C@@H]1N(C)c1ncnc2c1ccn2C(=O)Cc1ccccc1Nc1c(Cl)cccc1Cl [Ex. 9],13.49 %/day
12,"COc1ccc2cc([C@H](C)C(=O)n3ccc4c(N(C)[C@H]5CN(C(=O)CC#N)CC[C@H]5C)ncnc43)ccc2c1 [Ex. 6, 3-((3R, 4R)-3-((7-((S)-2-(6-methoxynaphthalen-2-yl)propanoyl)-7H-pyrrolo[2,3-d]pyrimidin-4-yl) (methyl)amino)-4-methylpiperidin-1-yl)-3-oxopropanenitrile]",9.82 %/day
13,"CCS(=O)(=O)N1CC(CC#N)(n2cc(-c3ncnc4c3ccn4C(=O)Cc3ccc(NC(C)=O)cc3)cn2)C1 [Ex. 24, N-(4-(2-(4-(1-(3-(cyanomethyl)-1-(ethylsulfonyl)azetidin-3-yl)-1H-pyrazol-4-yl)-7H-pyrrolo [2,3-d]pyrimidin-7-yl)-2-oxoethyl)phenyl) acetamide]",5.96 %/day
14,"CC(C(=O)OCn1ccc2c(N(C)[C@H]3CN(C(=O)CC#N)CC[C@H]3C)ncnc21)c1cccc(Oc2ccccc2)c1 (stereo partly drawn) [Ex. 52, (4-(((3R, 4R)-1-(2-cyanoacetyl)-4-methylpiperidin-3-yl) (methyl)amino)-7H-pyrrolo [2,3-d]pyrimidin-7-yl) methyl 2-(3-phenoxyphenyl) propanoate]",0.1 %/day
15,"Cc1c(Cl)cccc1Nc1ccccc1C(=O)OCn1ccc2c(N(C)[C@H]3CN(C(=O)CC#N)CC[C@H]3C)ncnc21 [Ex. 66, (4-(((3R, 4R)-1-(2-cyanoacetyl)-4-methylpiperidin-3-yl) (methyl)amino)-7H-pyrrolo [2,3-d]pyrimidin-7-yl) methyl 2-((3-chloro-2-methylphenyl)amino) benzoate]",0.06 %/day

# Continued, values first:
row,Release Rate (%/day),SMILES
1,0.43 %/day,"Cc1cccc(Nc2ccccc2C(=O)n2ccc3c(-c4cnn([C@H](CC#N)C5CCCC5)c4)ncnc32)c1C [Ex. 82, (R)-3-cyclopentyl-3-(4-(7-(2-((2,3-dimethylphenyl)amino)benzoyl)-7H-pyrrolo [2,3-d]pyrimidin-4-yl)-1H-pyrazol-1-yl) propanenitrile]"
2,0.17 %/day,"CNS(=O)(=O)C[C@H]1CC[C@H](N(C)c2ncnc3c2ccn3COC(=O)[C@@H](C)c2ccc(CC(C)C)cc2)CC1 [Ex. 88, (4-(Methyl ((trans)-4-((N-methylsulfamoyl)methyl)cyclohexyl)amino)-7H-pyrrolo [2,3-d]pyrimidin-7-yl) methyl (S)-2-(4-isobutylphenyl) propanoate]"
3,3.56 %/day,CC[C@@H]1CN(C(=O)NCC(F)(F)F)C[C@@H]1c1cnc2cnc3c(ccn3C(=O)[C@@H](C)c3ccc4cc(OC)ccc4c3)n12 [Ex. 131]
4,<0.01 %/day,"CC(C)Cc1ccc([C@H](C)C(=O)OCn2ccc3c(-c4cnn([C@H](CC#N)C5CCCC5)c4)ncnc32)cc1 [Ex. 86, (4-(1-((R)-2-cyano-1-cyclopentylethyl)-1H-pyrazol-4-yl)-7H-pyrrolo [2,3-d]pyrimidin-7-yl) methyl (S)-2-(4-isobutylphenyl) propanoate]"
5,0.35 %/day,"CNS(=O)(=O)C[C@H]1CC[C@H](N(C)c2ncnc3c2ccn3COC(=O)C(C)c2cccc(C(=O)c3ccccc3)c2)CC1 (stereo partly drawn) [Ex. 90, (4-(Methyl ((trans)-4-((N-methylsulfamoyl)methyl)cyclohexyl)amino)-7H-pyrrolo [2,3-d]pyrimidin-7-yl) methyl 2-(3-benzoylphenyl) propanoate]"
6,0.16 %/day,"CNS(=O)(=O)C[C@H]1CC[C@H](N(C)c2ncnc3c2ccn3COC(=O)[C@@H](C)c2ccc3cc(OC)ccc3c2)CC1 [Ex. 89, (4-(Methyl ((trans)-4-((N-methylsulfamoyl)methyl)cyclohexyl)amino)-7H-pyrrolo [2,3-d]pyrimidin-7-yl) methyl (S)-2-(6-methoxynaphthalen-2-yl) propanoate]"
7,0.45 %/day,"COc1ccc2c(c1)c(CC(=O)OCn1ccc3c(-c4cnn([C@H](CC#N)C5CCCC5)c4)ncnc31)c(C)n2C(=O)c1ccc(Cl)cc1 [Ex. 104, (R)-2-(4-(1-(2-cyano-1-cyclopentylethyl)-1H-pyrazol-4-yl)-7H-pyrrolo [2,3-d]pyrimidin-7-yl) methyl 2-(1-(4-chlorobenzoyl)-5-methoxy-2-methyl-1H-indol-3-yl) acetate]"
8,0.61 %/day,"CCc1cccc2c3c([nH]c12)C(CC)(CC(=O)OCn1ccc2c(-c4cnn(C5(CC#N)CN(S(=O)(=O)CC)C5)c4)ncnc21)OCC3 (centres unmarked) [Ex. 85, Methyl (4-(1-(3-(cyanomethyl)-1-(ethylsulfonyl)azetidin-3-yl)-1H-pyrazol-4-yl)-7H-pyrrolo [2,3-d]pyrimidin-7-yl) 2-(1,8-diethyl-1,3,4,9-tetrahydropyrano [3,4-b]indol-1-yl) acetate]"

# Reference: patent US12290519B2, “Anti-inflammatory coupling compound drug, and preparation method therefor and use thereof” (COVAL BIOPHARMA (SHANGHAI) CO., LTD., priority 2021, dated 2025)
